Reference: US8946216B2, “Indazole derivatives useful as ERK inhibitors” (Merck Sharp & Dohme Corp., priority 2010, dated 2015)
pIC50, pKd: −log10 of the molar value.

Assays:
[1] = biological target: ERK protein (Homo sapiens, UniProt P28482); assay: TdF (Temperature Dependence Fluorescence, thermal shift) assay for ERK; type: binding; conditions: read-out: TdF Kd; 3 μM ERK protein, 15, 50 or 100 μM compound, Sypro Orange; Kd calculated from ΔTm; uncertainty estimated ±50%
Source text: Assays: TdF Assay for ERK
The SAR (Structure Activity Relationship) for ERK ligands covered by this invention was interrogated using the TdF (Temperature Dependence Fluorescence) assay or best known as thermal shift assay. The TdF assay was mainly conducted in the 96-well based CHROMO-4 real time fluorescence plate reader (BioRad). The Sypro Orange (Sigma-Aldrich), environmentally sensitive fluorescence dye, was used to monitor the protein folding-unfolding transition. Protein-ligand binding was gauged by the change (or shift) in the unfolding transition temperature (ΔTm) acquired at protein alone with respect to protein in the presence of ligand of interest.
Compound of interest was first prepared in DMSO stock (typical concentration: 10 mM). Sample of 20 μL was then added into the 96-well PCR plate, where it consisted of 3 μM. […] Final percentage of DMSO resided in the sample was 2%. The sample plate was heated from 30° C. to 90° C. with thermal ramping rate of 1 ° C./min. The fluorescence signals were acquired with excitation and emission wavelengths centered at 490 and 560 nm respectively. The instrument thermal stability was ±0.2° C. The melting temperatures (Tm) for ERK protein under aforementioned conditions occurred at 61.0±0.2° C. and 64.8±0.2° C. respectively.
Theoretical Basis for TdF-based Ligand Binding Affinity Constant
The derivation of TdF-based ligand binding affinity constant (Kd) followed closely those previously formulated by Brandts and Lin [2]. In brief, the binding constant of the ligand at the Tm is expressed as below: […]
where T0 is the midpoint of unfolding for unliganded protein and Tm is the midpoint of unfolding in presence of ligand. [LTm] is free ligand at Tm. The ΔHu and ΔCpu are the enthalpy of unfolding and heat capacity change of unfolding for the protein respectively. Following algorithm derived by Winsor and coworker, the T0, ΔHu and ΔCpu can be determined separately from nonlinear regression fitting the protein alone melting curve:
Where F(T) is the observed fluorescence intensity at any temperature T, Yn and Yu are the predicted fluorescence intensities for fully folded and unfolded protein, respectively; mn and mu are slope correction for changes in Yn and Yu with respect to changes in temperature (analogously replace T0 with Tm in the above equation for liganded protein to yield Tm).
where ΔHL(T) is the van't Hoff enthalpy of ligand binding at temperature T and ΔCpL is the heat capacity upon ligand binding. For simplicity, the ΔCpL and ΔHL(T) were set to zero and −7 kcal/mol respectively. The uncertainty in the calculated ligand binding affinity constant was estimated to be ±50%.

[2] = biological target: unphosphorylated Mouse ERK2 protein (inactive ERK2) (Mus musculus, UniProt P63085); assay: Coupled ERK2 (cERK) assay, coupled MEK1/ERK2 IMAP; type: biochemical; conditions: 30 min preincubation with inactive ERK2, then activation by human MEK1; 30 μM ATP; fluorescence polarization; read-out: cERK2 IC50
Source text: • 1. M. W. Pantoliana, E. C. Petrella, J. D. Kwasnoski, V. S. Lobanov, J. Myslik, E. Graf, T. Carver, E. Asel, B. A. Springer, P. Lane, F. R. Salemme, High-density miniaturized thermal shift assays as a general strategy for drug discovery, J. Biomol. Screen 6 (2001) 429-440 • 2. J. F. Brandts, L.-N. Lin, Study of strong to ultratight protein interactions using differential scanning calorimetry, Biochemistry 29 (1990) 6927-6940 • 3. Mayhood, T. W., Windsor, W. T., Ligand binding affinity determined by temperature-dependent circular dichroism: Cyclin-dependent kinase 2 inhibitors, Analytical Biochemistry 345 (2005) 187-197 Coupled ERK2 (cERK) Assay:
14 μl of kinase buffer (10 mM Tris.HCl pH 7.2, 10 mM MgCl2, 0.01% Tween-20, 1 mM DTT) containing 0.4 ng unphosphorylated Mouse ERK2 protein was added to each well of a black 384-well assay plate. […] DMSO concentration during initial incubation is 6.7%. ERK2 activity was determined to be insensitive to DMSO concentrations up to 20%. ERK2 was then activated and it's kinase activity measured by the addition of 10 μl kinase buffer with the following components (final concentration per reaction): 2 ng active (phosphorylated) human MEK1 protein and 4 μM (total) ERK2 IMAP substrate peptides (3.9 μM unlabeled IPTTPITTTYFFFK-CONH2 and 100 nM IPTTPITTTYFFFK(5-carboxyfluorescein)-CONH2) and 30 μM ATP. DMSO concentration during ERK activation was 4%. After one hour, reactions were terminated by addition of 60 μl IMAP detections beads in binding buffer (Molecular Devices). Binding was allowed to equilibrate for 30 minutes before reading the plate on an LJL Analyst Fluorescence Polarization plate reader. […] Active compounds were reconfirmed in an independent assay.

[3] = biological target: fully phosphorylated, active Mouse ERK2 protein (Mus musculus, UniProt P63085); assay: Active ERK2 (aERK) assay, IMAP format; type: biochemical; conditions: 30 min preincubation; 1 μM substrate peptide, 30 μM ATP; fluorescence polarization; read-out: aERK2 IC50
Method: Active ERK2 (aERK) Assay:
Activated ERK2 activity was also determined in the IMAP assay format using the procedure outlined above. 1 μl of 25× compound was added to 14 μl of kinase buffer containing 0.25 ng fully phosphorylated, active Mouse ERK2 protein. Following a 30 minute incubation, the reactions were initiated by addition of 10 μl of kinase buffer containing 1 μM ERK2 IMAP substrate peptide (0.9 μM unlabeled IPTTPITTTYFFFK--CONH2 and 100 nM IPTTPITTTYFFFK(5-carboxyfluorescein)-CONH2) and 30 μM ATP. Reactions proceeded for 30 minutes before termination by addition of 60 μl IMAP detection beads in binding buffer. Plates were read as above after 30 minute binding equilibration. Active compounds were reconfirmed in an independent assay.

Chain of ERK protein (P28482 2-360): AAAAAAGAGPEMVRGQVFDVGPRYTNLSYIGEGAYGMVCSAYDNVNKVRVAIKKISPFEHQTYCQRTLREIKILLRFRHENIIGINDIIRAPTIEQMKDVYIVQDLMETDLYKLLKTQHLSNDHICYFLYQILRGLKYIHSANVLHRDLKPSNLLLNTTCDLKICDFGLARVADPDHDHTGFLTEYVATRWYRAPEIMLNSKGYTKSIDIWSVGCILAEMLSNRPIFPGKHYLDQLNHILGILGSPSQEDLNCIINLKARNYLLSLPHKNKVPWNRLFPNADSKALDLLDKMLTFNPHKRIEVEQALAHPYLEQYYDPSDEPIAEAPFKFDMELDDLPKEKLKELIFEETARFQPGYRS
Chain of unphosphorylated Mouse ERK2 protein (inactive ERK2) (P63085 whole entry): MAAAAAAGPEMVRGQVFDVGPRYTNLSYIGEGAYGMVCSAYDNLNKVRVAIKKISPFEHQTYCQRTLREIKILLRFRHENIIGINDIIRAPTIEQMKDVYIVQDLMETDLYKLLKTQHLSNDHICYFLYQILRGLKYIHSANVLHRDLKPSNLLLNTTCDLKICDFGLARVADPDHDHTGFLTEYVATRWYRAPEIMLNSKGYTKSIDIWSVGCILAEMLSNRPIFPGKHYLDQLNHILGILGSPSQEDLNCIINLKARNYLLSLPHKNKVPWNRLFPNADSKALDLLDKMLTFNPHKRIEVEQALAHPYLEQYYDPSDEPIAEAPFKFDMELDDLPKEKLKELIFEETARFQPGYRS
Chain of fully phosphorylated, active Mouse ERK2 protein (P63085 whole entry): as above

Structure (SMILES) | pKd [1] | pIC50 [2] | pIC50 [3]
O=C(Nc1ccc2[nH]nc(-c3ccncc3)c2c1)C1CNCCS1 (stereo not drawn) [Compound 17, N-[3-(4-PYRIDINYL)-1H-INDAZOL-5-YL]-2-THIOMORPHOLINECARBOXAMIDE] | 5.25 | 6.96 | 6.91
O=C(Nc1ccc2[nH]nc(-c3ccncc3)c2c1)C1CN(Cc2ccccn2)CCO1 (stereo not drawn) [Compound 5, N-[3-(4-PYRIDINYL)-1H-INDAZOL-5-YL]-4-(2-PYRIDINYLMETHYL)-2-MORPHOLINECARBOXAMIDE] | 6.19 | 5.61 | 5.97
O=C(Nc1ccc2[nH]nc(-c3ccncc3)c2c1)C1CN(CCCc2ccccc2)CCS1 (stereo not drawn) [Compound 67, 4-(3-PHENYLPROPYL)-N-[3-(4-PYRIDINYL)-1H-INDAZOL-5-YL]-2-THIOMORPHOLINECARBOXAMIDE] | – | – | 6.00
CN1CC(Cc2ccccc2)CC(C(=O)Nc2ccc3[nH]nc(-c4ccncc4)c3c2)C1 (stereo not drawn) [Compound 78, 1-METHYL-5-(PHENYLMETHYL)-N-[3-(4-PYRIDINYL)-1H-INDAZOL-5-YL]-3-PIPERIDINECARBOXAMIDE] | – | – | 8.72
O=C(Nc1ccc2[nH]nc(-c3ccncc3)c2c1)C1CN(CCc2ccccc2)CCS1 (stereo not drawn) [Compound 68, 4-(2-PHENYLETHYL)-N-[3-(4-PYRIDINYL)-1H-INDAZOL-5-YL]-2-THIOMORPHOLINECARBOXAMIDE] | – | – | 6.05
COc1cccc(CN2CCOC(C(=O)Nc3ccc4[nH]nc(-c5ccncc5)c4c3)C2)c1 (stereo not drawn) [Compound 28, 4-[(3-METHOXYPHENYL)METHYL]-N-[3-(4-PYRIDINYL)-1H-INDAZOL-5-YL]-2-MORPHOLINECARBOXAMIDE] | 5.44 | 6.54 | –
O=C(Nc1ccc2[nH]nc(-c3ccncc3)c2c1)C1CN(Cc2ccccn2)CCS1 (stereo not drawn) [Compound 12, N-[3-(4-PYRIDINYL)-1H-INDAZOL-5-YL]-4-(2-PYRIDINYLMETHYL)-2-THIOMORPHOLINECARBOXAMIDE] | 6.17 | 5.88 | –
O=C(Nc1ccc2[nH]nc(-c3ccncc3)c2c1)C1CN(Cc2ccc(Cl)cc2)CCO1 (stereo not drawn) [Compound 27, 4-[(4-CHLOROPHENYL)METHYL]-N-[3-(4-PYRIDINYL)-1H-INDAZOL-5-YL]-2-MORPHOLINECARBOXAMIDE] | 5.45 | 6.27 | –
COc1ccc(CN2CCOC(C(=O)Nc3ccc4[nH]nc(-c5ccncc5)c4c3)C2)cc1 (stereo not drawn) [Compound 33, 4-[(4-METHOXYPHENYL)METHYL]-N-[3-(4-PYRIDINYL)-1H-INDAZOL-5-YL]-2-MORPHOLINECARBOXAMIDE] | 5.94 | 6.65 | –
O=C(Nc1ccc2[nH]nc(-c3ccncc3)c2c1)C1CN(Cc2cccnc2)CCS1 (stereo not drawn) [Compound 8, N-[3-(4-PYRIDINYL)-1H-INDAZOL-5-YL]-4-(3-PYRIDINYLMETHYL)-2-THIOMORPHOLINECARBOXAMIDE] | 5.34 | 5.97 | –
O=C(Nc1ccc2[nH]nc(-c3ccncc3)c2c1)C1CCCNC1 (stereo not drawn) [Compound 25, N-[3-(4-PYRIDINYL)-1H-INDAZOL-5-YL]-3-PIPERIDINECARBOXAMIDE] | 5.35 | 6.20 | –

Next, values leading:

pKd [1] | pIC50 [2] | pIC50 [3] | Structure (SMILES)
7.59 | – | 6.72 | CC(c1ccccc1)N1CCC[C@H](C(=O)Nc2ccc3[nH]nc(-c4ccncc4)c3c2)C1 (stereo partly drawn) [Compound 73, 1-(1-PHENYLETHYL)-N-[3-(4-PYRIDINYL)-1H-INDAZOL-5-YL]-3(S)-PIPERIDINECARBOXAMIDE]
6.78 | 6.83 | 6.83 | COc1ccc(F)c(CN2CCOC(C(=O)Nc3ccc4[nH]nc(-c5ccncc5)c4c3)C2)c1 (stereo not drawn) [Compound 46, 4-[(2-FLUORO-5-METHOXYPHENYL)METHYL]-N-[3-(4-PYRIDINYL)-1H-INDAZOL-5-YL]-2-MORPHOLINECARBOXAMIDE]
7.21 | 6.78 | 5.74 | O=C(Nc1ccc2[nH]nc(-c3ccncc3)c2c1)C1CN(Cc2ccccc2)CCS1 (stereo not drawn) [Compound 36, 4-(PHENYLMETHYL)-N-[3-(4-PYRIDINYL)-1H-INDAZOL-5-YL]-2-THIOMORPHOLINECARBOXAMIDE]
6.26 | 5.74 | 6.23 | O=C(Nc1ccc2[nH]nc(-c3ccncc3)c2c1)C1CN(Cc2cscn2)CCO1 (stereo not drawn) [Compound 2, N-[3-(4-PYRIDINYL)-1H-INDAZOL-5-YL]-4-(4-THIAZOLYLMETHYL)-2-MORPHOLINECARBOXAMIDE]
6.65 | 6.34 | 6.24 | O=C(Nc1ccc2[nH]nc(-c3ccncc3)c2c1)C1CN(Cc2c(F)ccc(Cl)c2F)CCO1 (stereo not drawn) [Compound 47, 4-[(3-CHLORO-2,6-DIFLUOROPHENYL)METHYL]-N-[3-(4-PYRIDINYL)-1H-INDAZOL-5-YL]-2-MORPHOLINECARBOXAMIDE]
7.92 | 7.75 | 7.86 | O=C(Nc1ccc2[nH]nc(-c3ccncc3)c2c1)C1CN(Cc2ccccc2F)CCS1(=O)=O (stereo not drawn) [Compound 70, 4-[(2-FLUOROPHENYL)METHYL]-N-[3-(4-PYRIDINYL)-1H-INDAZOL-5-YL]-2-THIOMORPHOLINECARBOXAMIDE, 1,1-DIOXIDE]
6.65 | – | 6.00 | O=C(Nc1ccc2[nH]nc(-c3ccncc3)c2c1)C1CN(Cc2ccccc2)CCC12OCCO2 (stereo not drawn) [Compound 72, 8-(PHENYLMETHYL)-N-[3-(4-PYRIDINYL)-1H-INDAZOL-5-YL]-1,4-DIOXA-8-AZASPIRO[4.5]DECANE-6-CARBOXAMIDE]
8.05 | 7.56 | – | O=C(Nc1ccc2[nH]nc(-c3ccncc3)c2c1)C1CCCN(Cc2ccccc2F)C1 (stereo not drawn) [Compound 22, 1-[(2-FLUOROPHENYL)METHYL]-N-[3-(4-PYRIDINYL)-1H-INDAZOL-5-YL]-3-PIPERIDINECARBOXAMIDE]
7.46 | – | 6.54 | O=C(Nc1ccc2[nH]nc(-c3ccncc3)c2c1)[C@@H]1CCN(Cc2ccccc2)C1 [Compound 62, 1-(PHENYLMETHYL)-N-[3-(4-PYRIDINYL)-1H-INDAZOL-5-YL]-3(R)-PYRROLIDINECARBOXAMIDE]
6.60 | 6.46 | – | CNC(=O)c1n[nH]c2ccc(NC(=O)C3CN(Cc4ccccc4F)CCS3)cc12 (stereo not drawn) [Compound 75, 5-[[[4-[(2-FLUOROPHENYL)METHYL]-2-THIOMORPHOLINYL]CARBONYL]AMINO]-N-METHYL-1H-INDAZOLE-3-CARBOXAMIDE]
6.70 | 6.03 | – | O=C(Nc1ccc2[nH]nc(-c3ccncc3)c2c1)C1CN(Cc2cscn2)CCS1 (stereo not drawn) [Compound 13, N-[3-(4-PYRIDINYL)-1H-INDAZOL-5-YL]-4-(4-THIAZOLYLMETHYL)-2-THIOMORPHOLINECARBOXAMIDE]
